The term IC50 denotes the midpoint of a concentration-inhibition curve. The CC50 is the concentration giving 50% cytotoxicity. A word on the melting point: it is the temperature of the solid-liquid transition.

The values below come from publication PMC7487730, “Design, synthesis and biological evaluation of novel benzodioxole derivatives as COX inhibitors and cytotoxic agents” (BMC Chemistry, 2020).

Data set [1] has as its target T1, ovine COX1 (Ovis aries, UniProt P05979).
T1 construct: purchased Cayman Chemical 560131 (kit)
T1 sequence (P05979 25-600): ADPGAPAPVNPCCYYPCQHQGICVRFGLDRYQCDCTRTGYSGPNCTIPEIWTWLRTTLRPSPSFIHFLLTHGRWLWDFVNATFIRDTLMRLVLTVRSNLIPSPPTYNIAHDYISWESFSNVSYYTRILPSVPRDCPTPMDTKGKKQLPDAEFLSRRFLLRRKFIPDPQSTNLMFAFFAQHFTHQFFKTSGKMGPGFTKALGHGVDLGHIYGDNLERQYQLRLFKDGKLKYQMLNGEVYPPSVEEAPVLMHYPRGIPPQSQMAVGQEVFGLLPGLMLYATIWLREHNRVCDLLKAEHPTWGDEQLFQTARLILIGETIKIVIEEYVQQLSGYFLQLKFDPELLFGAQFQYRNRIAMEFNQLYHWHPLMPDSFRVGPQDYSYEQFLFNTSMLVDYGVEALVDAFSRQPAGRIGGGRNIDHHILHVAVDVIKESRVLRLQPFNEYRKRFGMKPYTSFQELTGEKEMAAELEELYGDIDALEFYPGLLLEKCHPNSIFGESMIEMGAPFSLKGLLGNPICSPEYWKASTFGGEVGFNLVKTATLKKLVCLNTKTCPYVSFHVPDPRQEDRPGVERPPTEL
The experiment in a line: COX inhibitor screening assay kit (Cayman No. 560131), COX1. It counts as biochemical. The method, then:
All chemicals were purchased from Sigma-Aldrich and Alfa Aesar. Melting points were determined with an SMP-II Digital Melting Point Apparatus and are uncorrected. IR spectra were obtained using a Perkin Elmer Spectrum 400 FTIR/FTNIR spectrometer. ^1H-NMR and ^13C-NMR spectra were recorded in DMSO-d6 and were performed on two NMR instruments. […] The second was a Bruker 300 MHz-Avance III High-Performance Digital FT-NMR spectrometer at the NMR facility at the Doping and Narcotics Analysis Laboratory of the faculty of pharmacy, Anadolu University, Turkey (it was used for both ^1H-NMR and ^13C-NMR for the other compounds). Tetramethylsilane was used as the internal standard. All chemical shifts were recorded as d (ppm). […] HeLa Cervical Carcinoma cell line was purchased from ATCC (ATCC® CCL-2™), and the cyototoxicty test of the cell viability was assessed by the CellTilter 96® Aqueous One Solution Cell Proliferation (MTS) assay according to the manufacturer’s instructions (Promega Corporation, Madison, WI) (Additional file 1).
The assay was run in duplicate with three concentrations (50, 20, and 5 µM). […] The percentage inhibition of the three concentrations was used to calculate the IC50 [16].

The target in data set [2] is T2, human recombinant COX2 (Homo sapiens, UniProt P35354).
T2 construct: purchased Cayman Chemical 560131 (kit)
T2 sequence (P35354 18-604): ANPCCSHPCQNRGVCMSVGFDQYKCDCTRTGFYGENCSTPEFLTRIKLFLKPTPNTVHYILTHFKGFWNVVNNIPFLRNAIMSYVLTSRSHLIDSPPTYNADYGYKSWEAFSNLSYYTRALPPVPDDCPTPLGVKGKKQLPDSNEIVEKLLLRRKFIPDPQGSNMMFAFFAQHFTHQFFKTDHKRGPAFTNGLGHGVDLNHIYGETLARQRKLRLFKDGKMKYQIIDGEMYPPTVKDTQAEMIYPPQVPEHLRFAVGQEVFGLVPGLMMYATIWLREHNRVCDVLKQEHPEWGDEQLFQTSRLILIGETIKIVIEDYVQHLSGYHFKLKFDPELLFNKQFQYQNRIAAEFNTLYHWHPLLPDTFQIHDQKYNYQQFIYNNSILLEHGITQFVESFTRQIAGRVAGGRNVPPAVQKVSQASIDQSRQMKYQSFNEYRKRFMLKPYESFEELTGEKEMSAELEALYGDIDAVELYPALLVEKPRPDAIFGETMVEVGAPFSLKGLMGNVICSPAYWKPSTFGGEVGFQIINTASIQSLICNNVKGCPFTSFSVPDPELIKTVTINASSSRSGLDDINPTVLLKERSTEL
The experiment in a line: COX inhibitor screening assay kit (Cayman No. 560131), COX2. The data set is classed as biochemical. To be noted: for COX1/COX2 Ratio Selectivity: ratio of IC50 COX1 to IC50 COX2; for IC50: run in duplicate with three concentrations (50, 20, and 5 µM).

Data set [3] can be described thus: MTS cytotoxicity assay on HeLa cells. The data set is classed as cell-based. The note with it: human. On the procedure: An MTS assay was used to determine the cytotoxic effect of Benzodioxole derivatives on HeLa (cervical carcinoma cells).
All chemicals were purchased from Sigma-Aldrich and Alfa Aesar. Melting points were determined with an SMP-II Digital Melting Point Apparatus and are uncorrected. IR spectra were obtained using a Perkin Elmer Spectrum 400 FTIR/FTNIR spectrometer. ^1H-NMR and ^13C-NMR spectra were recorded in DMSO-d6 and were performed on two NMR instruments. The first was a Bruker 500 MHz-Avance III High-Performance Digital FT-NMR spectrometer at the Faculty of Science, Department of Chemistry, The University of Jordan, Jordan (it was used for the ^1H-NMR of just one compound, 3e). The second was a Bruker 300 MHz-Avance III High-Performance Digital FT-NMR spectrometer at the NMR facility at the Doping and Narcotics Analysis Laboratory of the faculty of pharmacy, Anadolu University, Turkey (it was used for both ^1H-NMR and ^13C-NMR for the other compounds). Tetramethylsilane was used as the internal standard. All chemical shifts were recorded as d (ppm). […] The yellow product of this enzymatic reaction was determined using a UV spectrophotometer with a Microplate Reader (BioRad, Japan) at a wavelength of 415 nm. HeLa Cervical Carcinoma cell line was purchased from ATCC (ATCC® CCL-2™), and the cyototoxicty test of the cell viability was assessed by the CellTilter 96® Aqueous One Solution Cell Proliferation (MTS) assay according to the manufacturer’s instructions (Promega Corporation, Madison, WI) (Additional file 1).
HeLa Cervical Carcinoma was cultured in RPMI-1640 media and supplemented with 10% fetal bovine serum, 1% penicillin/streptomycin antibiotics and 1% L-glutamine. Cells were grown in a humidified atmosphere with 5% CO2 at 37 °C, and they were seeded in 2.6 × 10^4 cells/well in a 96-well plate. After 48 h, the cells were confluent, the media was changed, and cells were incubated with four concentrations (2, 1, 0.5, and 0.2 mM) of the tested compounds for 24 h. Cell viability was assessed by the CellTilter 96® Aqueous One Solution Cell Proliferation (MTS) Assay according to the manufacturer’s instructions (Promega Corporation, Madison, WI). Briefly, at the end of the treatment, 20 μL of MTS solution per 100 μL of media was added to each well and incubated at 37 °C for 2 h. Absorbance was measured at 490 nm.
Background: Tetrazolium dyes change colour on reduction, which living cells bring about.

Setting [4] is: run in duplicate with three concentrations (50, 20, and 5 µM), read-out: The IC50 in µM of COX1.
Where [5] appears, read: HeLa cervical carcinoma cells (ATCC CCL-2), HeLa, 24 h incubation, MTS, read-out: HeLa Cell CC50 in milli-molar.

Read-outs that look alike come from different tables or passages of the source.

Take `COC(=O)Cc1cc2c(cc1C(=O)c1ccccc1I)OCO2` [3b, Methyl 2-(6-(2-iodobenzoyl)benzo[d][1,3]dioxol-5-yl)acetate]: the results for the IC50 in data set [1] (setting [4]) and in data set [2] were 1.12 µM and 1.3 µM, respectively. The “COX1/COX2 Ratio Selectivity” value in data set [2] was 0.862. Moreover, in data set [3] (setting [5]), the CC50 at 24 h was found to be 228 µM.
Molecule `COC(=O)Cc1cc2c(cc1C(=O)c1ccc(I)cc1)OCO2` [3c, Methyl 2-(6-(4-iodobenzoyl)benzo[d][1,3]dioxol-5-yl)acetate] came in with a melting point of 119 to 121 °C. Moreover, the IC50 in data set [1] (setting [4]) stood at 27.1 µM. Also, in data set [2], the “COX1/COX2 Ratio Selectivity” value is recorded as 0.723 and the IC50 amounted to 37.5 µM. In addition, the CC50 at 24 h in data set [3] (setting [5]) stood at 1790 µM.
`O=C(O)Cc1cc2c(cc1C(=O)c1cccc(Br)c1)OCO2` [4e, 2-(6-(3-bromobenzoyl)benzo[d][1, 3]dioxol-5-yl)acetic acid]: the melting point was 154 to 156 °C. In addition, the IC50 in data set [1] (setting [4]) is 7.11 µM. In addition, in data set [2], the “COX1/COX2 Ratio Selectivity” value is given as 0.144 and the IC50 came out at 49.3 µM. Besides, the CC50 at 24 h in data set [3] (setting [5]) stood at 437 µM.
As for `COC(=O)Cc1cc2c(cc1C(=O)c1ccccc1)OCO2` [3a, Methyl 2-(6-benzoylbenzo[d][1,3]dioxol-5-yl)acetate], in data set [1] (setting [4]), the IC50 was 12.3 µM. For the same molecule, in data set [2], the “COX1/COX2 Ratio Selectivity” value stood at 0.859 and the IC50 was found to be 14.3 µM. Further, in data set [3] (setting [5]), the CC50 at 24 h is 1490 µM.
Take `O=C(O)Cc1cc2c(cc1C(=O)c1ccc(I)cc1)OCO2` [4c, 2-(6-(4-iodobenzoyl)benzo[d][1,3]dioxol-5-yl)acetic acid]: the melting point lay in the range of 239.5 to 241.5 °C. Also, in data set [1] (setting [4]), the IC50 stood at 33.7 µM. Also, in data set [2], the “COX1/COX2 Ratio Selectivity” value was 0.861 and the half-inhibitory concentration (IC50) turned out to be 39.1 µM. The CC50 at 24 h in data set [3] (setting [5]) was 1050 µM.
`COC(=O)Cc1cc2c(cc1C(=O)c1ccc(Cl)cc1Cl)OCO2` [3f, Methyl 2-(6-(2,4-dichlorobenzoyl)benzo[d][1, 3]dioxol-5-yl)acetate] displayed a melting point of 95 to 97 °C.
`O=C(O)Cc1cc2c(cc1C(=O)c1ccccc1)OCO2` [4a, 2-(6-benzoylbenzo[d][1,3]dioxol-5-yl)acetic acid] gave a melting point of 184.5 to 186.5 °C. Besides, the IC50 in data set [1] (setting [4]) was determined as 1.45 µM. Further, in data set [2], the “COX1/COX2 Ratio Selectivity” value was found to be 0.434 and the IC50 turned out to be 3.34 µM. Also, the CC50 at 24 h in data set [3] (setting [5]) is 1940 µM.
In the same order, the values of `O=C(O)Cc1cc2c(cc1C(=O)c1ccccc1Br)OCO2` [4d, 2-(6-(2-bromobenzoyl)benzo[d][1,3]dioxol-5-yl)acetic acid] are 145 to 147 °C, 4.25 µM, 1.809, 2.35 µM and 547 µM.
Molecule `O=C(O)Cc1cc2c(cc1C(=O)c1ccc(Cl)cc1Cl)OCO2` [4f, 2-(6-(2,4-dichlorobenzoyl)benzo[d][1,3]dioxol-5-yl)acetic acid] displayed a melting point of 168.5 to 170 °C. Moreover, in data set [1] (setting [4]), the IC50 came to 0.725 µM. Also, in data set [2], the “COX1/COX2 Ratio Selectivity” value turned out to be 0.169 and the IC50 was 4.29 µM. Also, the CC50 at 24 h in data set [3] (setting [5]) worked out at 1020 µM.
For `O=C(O)Cc1cc2c(cc1C(=O)c1ccccc1I)OCO2` [4b, 2-(6-(2-iodobenzoyl)benzo[d][1,3]dioxol-5-yl)acetic acid], the melting point was in the range of 147 to 149 °C. In addition, the IC50 in data set [1] (setting [4]) was 7.67 µM. Further, in data set [2], the “COX1/COX2 Ratio Selectivity” value was determined as 0.250 and the half-inhibitory concentration (IC50) was found to be 30.7 µM. Further, in data set [3] (setting [5]), the CC50 at 24 h is 697 µM.
`COC(=O)Cc1cc2c(cc1C(=O)c1cccc(Br)c1)OCO2` [3e, Methyl 2-(6-(3-bromobenzoyl)benzo[d][1, 3]dioxol-5-yl)acetate] gave a melting point of 72.5 to 74.5 °C. In addition, the 50% inhibitory concentration (IC50) in data set [1] (setting [4]) was 2.36 µM. In addition, in data set [2], the “COX1/COX2 Ratio Selectivity” value is reported as 0.864 and the IC50 is 2.73 µM. In data set [3], this molecule returned a CC50 at 24 h of 219 µM.
`CC(C(=O)O)c1cccc(C(=O)c2ccccc2)c1` (stereo not drawn) [Ketoprofen, reference compound] yielded an IC50 in data set [1] (The IC50 in µM of COX1, run in duplicate with three concentrations (50, 20, and 5 µM)) of 0.031 µM.
`COC(=O)Cc1cc2c(cc1C(=O)c1ccccc1Br)OCO2` [3d, Methyl 2-(6-(2-bromobenzoyl)benzo[d][1,3]dioxol-5-yl)acetate] came in with a melting point of 85 to 87 °C. Also, in data set [2], the “COX1/COX2 Ratio Selectivity” value stood at 0.897 and the IC50 turned out to be 1.45 µM. The CC50 at 24 h in data set [3] (setting [5]) turned out to be 1610 µM.
